According to article PMC6333775, “Structure of tRNA splicing enzyme Tpt1 illuminates the mechanism of RNA 2′-PO4 recognition and ADP-ribosylation” (Nature Communications, 2019):

Experiments:
CthTpt1 [1] = target: T1, CthTpt1 (Acetivibrio thermocellus, UniProt A3DJX6); assay: X-ray crystal structure, […] Å; assay type: binding; conditions: acquired during production in E. coli, pH 6.0
T1 construct: gene kptA; 182-aa polypeptide, His6-tagged, recombinant from E. coli; Leu3-Glu182 modelled; one protomer in the asymmetric unit
T1 sequence (A3DJX6 whole entry): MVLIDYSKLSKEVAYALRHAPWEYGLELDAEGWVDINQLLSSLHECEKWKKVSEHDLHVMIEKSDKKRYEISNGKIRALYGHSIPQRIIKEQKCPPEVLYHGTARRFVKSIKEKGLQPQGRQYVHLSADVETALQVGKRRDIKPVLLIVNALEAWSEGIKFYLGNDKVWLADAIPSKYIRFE

CthTpt1 [2] = target: T2, CthTpt1 (Acetivibrio thermocellus, UniProt A3DJX6, C46S); assay: X-ray crystal structure, […] Å; assay type: binding; conditions: NAD+ site; CoA absent from RNA lobe; acquired during production in E. coli; pH 8.5
T2 construct: gene kptA; 182-aa polypeptide, His6-tagged, recombinant from E. coli; Leu3-Glu182 modelled; one protomer in the asymmetric unit
T2 sequence (A3DJX6 whole entry C46S): as the sequence (A3DJX6 whole entry) above, with C46S counted along it

RslTpt1 = target: T3, RslTpt1 (Runella slithyformis, UniProt A0A7U3ZK32, H99A/T101A); assay: RNA […]'-phosphotransferase assay, […]-labelled 6-mer RNA, urea-PAGE; assay type: biochemical; conditions: 1 mM NAD+, 0.2 µM 2'-PO4 6-mer RNA, 0.01 µM enzyme, 30 min, pH 7.5, 37 °C
T3 construct: gene kptA; His6-tagged, recombinant from E. coli, Ni-NTA and gel filtration
T3 sequence (A0A7U3ZK32 entry or part of it H99A/T101A): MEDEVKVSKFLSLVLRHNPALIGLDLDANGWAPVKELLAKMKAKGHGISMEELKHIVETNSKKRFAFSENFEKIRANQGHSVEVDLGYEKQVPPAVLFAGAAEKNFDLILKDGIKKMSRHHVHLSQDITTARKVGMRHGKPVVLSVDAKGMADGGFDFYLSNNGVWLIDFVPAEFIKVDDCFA

## Nc1ncnc2c1ncn2[C@@H]1O[C@H](COP(=O)(O)OP(=O)(O)OC[C@H]2O[C@H](OP(=O)(O)O)[C@H](O)[C@@H]2O)[C@@H](O)[C@H]1O [ADP-ribose-1″-phosphate]
CthTpt1 [1]; NAD+ site (C-terminal lobe), CoA also bound
  X-ray crystal structure, 1.4 Å: The molecule associated with the C-terminal lobe was unambiguously modeled as ADP-ribose-1″-phosphate
CthTpt1 [2]
  X-ray crystal structure, 1.55 Å: ADP-ribose-1″-phosphate was bound to the NAD^+ lobe

## NC(=O)c1ccc[n+]([C@@H]2O[C@H](COP(=O)([O-])OP(=O)(O)OC[C@H]3O[C@@H](n4cnc5c(N)ncnc54)[C@H](O)[C@@H]3O)[C@@H](O)[C@H]2O)c1 [NAD^+]
RslTpt1
  % of input RNA converted to 2′-OH product: 4%

## CC(C)(COP(=O)(O)OP(=O)(O)OC[C@H]1O[C@@H](n2cnc3c(N)ncnc32)[C@H](O)[C@@H]1OP(=O)(O)O)[C@@H](O)C(=O)NCCC(=O)NCCS [coenzyme A]
CthTpt1 [1]; covalent (disulfide to Cys46), pAp moiety in RNA site (N-terminal lobe), ADP-ribose-1″-phosphate also bound
  X-ray crystal structure, 1.4 Å: The molecule associated with the N-terminal lobe was convincingly modeled as coenzyme A (CoA)
